Measured values as given in patent publication US10597388B2, “Pyridazinone herbicides” (FMC CORPORATION, priority 2014, dated 2020).

Tests used:
Format in all cases: in vivo
[1] = test system: horseweed (Conyza canadensis); test: Test E greenhouse herbicide test, pre- and postemergence; conditions: Postemergence
Outline: (§1)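 Greenhouse pots; preemergence on silt loam, postemergence on plants 1- to 4-leaf (2 to 18 cm) grown in peat, vermiculite and nutrient medium. Test chemicals formulated in non-phytotoxic solvent with surfactant. Ratings taken after 14 to 21 d.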

[2] = test system: waterhemp (common waterhemp, Amaranthus rudis); test: as above
Outline: as §1

[3] = test system: crabgrass, Brazilian (Brazilian crabgrass, Digitaria horizontalis); test: as above
Outline: as §1

[4] = test system: ragweed (common ragweed, Ambrosia elatior); test: as above
Outline: as §1

[5] = test system: crabgrass, large (large crabgrass, Digitaria sanguinalis); test: as above; conditions: Preemergence
Outline: as §1

[6] = test system: field bindweed (Convolvulus arvensis); test: as above
Outline: as §1

[7] = test system: foxtail, giant (giant foxtail, Setaria faberii); test: as above; conditions: Preemergence
Outline: as §1

[8] = test system: nightshade (eastern black nightshade, Solanum ptycanthum); test: as above; conditions: Preemergence
Outline: as §1

[9] = test system: panicum, fall (fall panicum, Panicum dichotomiflorum); test: as above
Outline: as §1

[10] = test system: kochia (Kochia scoparia); test: as above
Outline: as §1

[11] = test system: surinam grass (Brachiaria decumbens); test: as above; conditions: Preemergence
Outline: as §1

[12] = test system: goosegrass (Eleusine indica); test: as above; conditions: Preemergence
Outline: as §1

[13] = test system: sandbur (southem sandbur, Cenchrus echinatus); test: as above
Outline: as §1

[14] = test system: beggarticks (hairy beggarticks, Bidens pilosa); test: as above
Outline: as §1

[15] = test system: waterhemp_RES1 (ALS & Triazine resistant common waterhemp, Amaranthus rudis); test: Test E greenhouse herbicide test, postemergence
Outline: (§2)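 Formulated compounds are applied postemergence to potted waterhemp at 1–4 leaves (2–18 cm high). Plants stay in the greenhouse for 14 to 21 d before visual comparison with controls, and control is scored from 0 (none) to 100 (complete).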

[16] = test system: waterhemp_RES2 (ALS & HPPD resistant common waterhemp, Amaranthus rudis); test: Test E greenhouse herbicide test, postemergence
Outline: as §2

[17] = 62 g ai/ha, scale 0 to 100 (0 no effect, 100 complete control)
[18] = 125 g ai/ha, scale 0 to 100 (0 no effect, 100 complete control)
[19] = 16 g ai/ha, visual, scale 0 no effect to 100 complete control
[20] = 31 g ai/ha, visual, scale 0 no effect to 100 complete control
[21] = 62 g ai/ha, Postemergence, scale 0 to 100 (0 no effect, 100 complete control)
[22] = 62 g ai/ha, Preemergence, scale 0 to 100 (0 no effect, 100 complete control)
[23] = 125 g ai/ha, Postemergence, scale 0 to 100 (0 no effect, 100 complete control)
[24] = 125 g ai/ha, Preemergence, scale 0 to 100 (0 no effect, 100 complete control)
[25] = Postemergence, 16 g ai/ha, visual, scale 0 no effect to 100 complete control
[26] = Postemergence, 31 g ai/ha, visual, scale 0 no effect to 100 complete control
[27] = Preemergence, 16 g ai/ha, scale 0 to 100, 0 no effect, 100 complete control
[28] = Preemergence, 31 g ai/ha, scale 0 to 100, 0 no effect, 100 complete control
[29] = 16 g ai/ha, scale 0 to 100, 0 no effect, 100 complete control
[30] = 31 g ai/ha, scale 0 to 100, 0 no effect, 100 complete control

Cc1ccc2sc(C)c(-c3c(OC(=O)OC(C)C)c(C)nn(C)c3=O)c2c1 [Compound 66]
Plant response rating, Horseweed [1, 17]: 90 | Plant response rating, Horseweed [1, 18]: 90 | Plant response rating, Horseweed [1, 19]: 60 | Plant response rating, Horseweed [1, 20]: 80 | Plant response rating, Waterhemp [2, 21]: 75 | Plant response rating, Waterhemp [2, 22]: 80 | Plant response rating, Waterhemp [2, 23]: 80 | Plant response rating, Waterhemp [2, 24]: 90 | Plant response rating, Waterhemp [2, 25]: 70 | Plant response rating, Waterhemp [2, 26]: 65 | Plant response rating, Waterhemp [2, 27]: 0 | Plant response rating, Waterhemp [2, 28]: 65 | Plant response rating, Crabgrass, Brazil [3, 21]: 30 | Plant response rating, Crabgrass, Brazil [3, 22]: 25 | Plant response rating, Crabgrass, Brazil [3, 23]: 40 | Plant response rating, Crabgrass, Brazil [3, 24]: 65 | Plant response rating, Crabgrass, Brazil [3, 25]: 10 | Plant response rating, Crabgrass, Brazil [3, 26]: 20 | Plant response rating, Crabgrass, Brazil [3, 27]: 0 | Plant response rating, Crabgrass, Brazil [3, 28]: 25 | Plant response rating, Ragweed [4, 21]: 80 | Plant response rating, Ragweed [4, 22]: 90 | Plant response rating, Ragweed [4, 23]: 90 | Plant response rating, Ragweed [4, 24]: 100 | Plant response rating, Ragweed [4, 25]: 75 | Plant response rating, Ragweed [4, 26]: 80 | Plant response rating, Ragweed [4, 27]: 25 | Plant response rating, Ragweed [4, 28]: 65 | Plant response rating, Crabgrass, Large [5, 17]: 0 | Plant response rating, Crabgrass, Large [5, 18]: 15 | Plant response rating, Crabgrass, Large [5, 29]: 0 | Plant response rating, Crabgrass, Large [5, 30]: 0 | Plant response rating, Field Bindweed [6, 21]: 80 | Plant response rating, Field Bindweed [6, 22]: 50 | Plant response rating, Field Bindweed [6, 23]: 80 | Plant response rating, Field Bindweed [6, 24]: 40 | Plant response rating, Field Bindweed [6, 25]: 70 | Plant response rating, Field Bindweed [6, 26]: 60 | Plant response rating, Field Bindweed [6, 27]: 0 | Plant response rating, Field Bindweed [6, 28]: 5 | Plant response rating, Foxtail, Giant [7, 17]: 40 | Plant response rating, Foxtail, Giant [7, 18]: 90 | Plant response rating, Foxtail, Giant [7, 29]: 0 | Plant response rating, Foxtail, Giant [7, 30]: 5 | Plant response rating, Nightshade [8, 17]: 15 | Plant response rating, Nightshade [8, 18]: 100 | Plant response rating, Nightshade [8, 29]: 0 | Plant response rating, Nightshade [8, 30]: 0 | Plant response rating, Panicum, Fall [9, 21]: 70 | Plant response rating, Panicum, Fall [9, 22]: 95 | Plant response rating, Panicum, Fall [9, 23]: 80 | Plant response rating, Panicum, Fall [9, 24]: 98 | Plant response rating, Panicum, Fall [9, 25]: 30 | Plant response rating, Panicum, Fall [9, 26]: 70 | Plant response rating, Panicum, Fall [9, 27]: 10 | Plant response rating, Panicum, Fall [9, 28]: 60 | Plant response rating, Kochia [10, 21]: 90 | Plant response rating, Kochia [10, 22]: 60 | Plant response rating, Kochia [10, 23]: 95 | Plant response rating, Kochia [10, 24]: 90 | Plant response rating, Kochia [10, 25]: 90 | Plant response rating, Kochia [10, 26]: 95 | Plant response rating, Kochia [10, 27]: 0 | Plant response rating, Kochia [10, 28]: 0 | Plant response rating, Surinam Grass [11, 17]: 5 | Plant response rating, Surinam Grass [11, 18]: 50 | Plant response rating, Surinam Grass [11, 29]: 5 | Plant response rating, Surinam Grass [11, 30]: 20 | Plant response rating, Goosegrass [12, 17]: 10 | Plant response rating, Goosegrass [12, 18]: 10 | Plant response rating, Goosegrass [12, 29]: 5 | Plant response rating, Goosegrass [12, 30]: 5 | Plant response rating, Sandbur [13, 21]: 50 | Plant response rating, Sandbur [13, 22]: 10 | Plant response rating, Sandbur [13, 23]: 60 | Plant response rating, Sandbur [13, 24]: 70 | Plant response rating, Sandbur [13, 25]: 25 | Plant response rating, Sandbur [13, 26]: 40 | Plant response rating, Sandbur [13, 27]: 0 | Plant response rating, Sandbur [13, 28]: 0 | Plant response rating, Beggarticks [14, 21]: 90 | Plant response rating, Beggarticks [14, 22]: 95 | Plant response rating, Beggarticks [14, 23]: 100 | Plant response rating, Beggarticks [14, 24]: 100 | Plant response rating, Beggarticks [14, 25]: 75 | Plant response rating, Beggarticks [14, 26]: 80 | Plant response rating, Beggarticks [14, 27]: 65 | Plant response rating, Beggarticks [14, 28]: 70 | Plant response rating, Waterhemp_RES1 [15, 19]: 70 | Plant response rating, Waterhemp_RES1 [15, 20]: 80 | Plant response rating, Waterhemp_RES1 [15, 17]: 75 | Plant response rating, Waterhemp_RES1 [15, 18]: 80 | Plant response rating, Waterhemp_RES2 [16, 19]: 40 | Plant response rating, Waterhemp_RES2 [16, 20]: 40 | Plant response rating, Waterhemp_RES2 [16, 17]: 40 | Plant response rating, Waterhemp_RES2 [16, 18]: 50
